# Experimental data taken from patent US8202998B2, “Salts of benzimidazolyl pyridyl ethers and formulations thereof” (Novartis AG, priority 2006, dated 2012).
# Experiments:
# [1] = Determination of solubility at 25° C.; format: physicochemical; conditions: for solubility: thermodynamic from solid
# Experimental: Excess solids were equilibrated in each solvent for over 24 hours at 25° C.±0.1. Concentration in aqueous supernatant was measured by UV and HPLC and concentrations in organic solvents by gravimetry.
# [2] = Bioavailability study of API and salts of API in dogs; format: in vivo, beagle dogs; conditions: single 100 mg oral dose
# Experimental: For comparison, a microemulsion of the free base was also studied. The study was performed with 4 dogs, weighing 9-15 kg each. A crossover design with a washout period of at least 1 week was used. The dogs were given a single oral dose of 100 mg of test compound, administered under fasting conditions.
# [3] = pH of 1% solution or suspension; format: physicochemical; conditions: In water
# [4] = Thermogravimetry / loss on drying; format: physicochemical
# [5] = Aqueous solubility of API as a function of pH (shake flask method); format: physicochemical; conditions: for solubility at 5 days: aqueous HCl or NaOH solution, ionic strength 0.15 (KCl), thermodynamic from solid, room temperature
# Experimental: The aqueous solubility of the compound of Formula I was assessed as a function of pH. Solubility of the compound of Formula I was determined using the shake flask method. The following aqueous solutions of hydrochloric acid (HCl) were prepared: 100, 33.3, 11.1, 3.7, 1.2, 0.4, and 0 mM. The following aqueous solutions of sodium hydroxide (NaOH) were prepared: 1.2 and 0.4 mM. The ionic strength of each of these solutions was adjusted to 0.15 using potassium chloride. Excess amounts of the compound of Formula I were added to a 1 mL aliquot of each of the above solutions in 1.5-mL polypropylene tubes. The tubes were agitated at room temperature for 5 days before analysis. On the day of analysis, the tubes were centrifuged at 15,000 revolutions per minute (rpm) using a microcentrifuge at 22° C. for 20 minutes. The concentration of compound of Formula I in the supernatant was measured by HPLC. The pH of the supernatant was measured using an Orion pH meter, which was calibrated before use.
# [6] = Hygroscopicity (sorption/desorption); format: physicochemical
# Experimental: Sorption/desorption isotherms were measured using VTI vapor sorption device (DVS-1). Measurements were carried out at 25° C.
# [7] = Aqueous solubility of salts in deionized water
# [8] = Polymorphism behavior: crystal modification after 24 hours equilibration; format: physicochemical
# Experimental: A suspension of 6 mg of drug substance in 300 μl of solvent is prepared. Samples are agitated for ≧24 hour at 22° C.±2° C. The solids are collected and investigated for changes.
# [9] = Intrinsic dissolution rate; format: physicochemical; conditions: 37° C.
# Experimental: The intrinsic dissolution rate measurements were carried out in 0.5 cm^2 VanKel die assemblies and a pellet pressure of 1 ton. The dissolution was measured using a Cary 50 spectrophotometer with a stirring rate of 200 rpm. The solution medium was held at 37° C. and measurements were made at 276 nm.
# [10] = Stability: degradation products (DP) and appearance (color) under stress conditions; format: physicochemical; parameters: key to CL: A: No change of color; B: Slight discoloration; C: Medium discoloration; D: Strong discoloration; ↓: Suspension; *: Clear solution after stress test; —: no change; x: test not performed
# Experimental: Column: Symmetry C18 (Waters), 3.5 μm, 3×150 mm
# Mobile phase: A=0.1% TFA in water; B=acetonitrile
# Gradient: 20 to 100% B in 10 minutes
# Column temperature: 40° C.
# Stability of the three salts with respect to color and degradation products were assessed under various conditions.
# [11] = Apparent pKa by pH profile solubility study; format: physicochemical; conditions: determined by a pH profile solubility study
# Excerpt: The apparent pKa of the compound of Formula I refers to the apparent ionization constant of the compound of Formula I as determined by a pH profile solubility study. Thus, the apparent pKa of the compound of Formula I is a complex term consisting of three overlapping ionization constants of the basic nitrogens in Formula I.
# [12] = Effect of grinding on morphic properties; format: physicochemical
# [13] = beagle, dog, plasma, fasting, mean and sd
# [14] = deionized water, water, thermodynamic from solid
# [15] = 0.1% solutions or suspensions, 1 week 80° C. or 50° C., Methanol
# [16] = 0.1% solutions or suspensions, 1 week 80° C. or 50° C., Water
# [17] = 0.1% solutions or suspensions, 1 week 80° C. or 50° C., pH 1
# [18] = 0.1% solutions or suspensions, 1 week 80° C. or 50° C., pH 3
# [19] = 0.1% solutions or suspensions, 1 week 80° C. or 50° C., pH 5
# [20] = 0.1% solutions or suspensions, 1 week 80° C. or 50° C., pH 7
# [21] = 0.1% solutions or suspensions, 1 week 80° C. or 50° C., pH 9
# [22] = 0.1% solutions or suspensions, 1 week 80° C. or 50° C., pH 11
# [23] = 1-2 weeks 50° C., tight container, 1% in mixture 1
# [24] = 1-2 weeks 50° C., tight container, 1% in mixture 2
# [25] = 1-2 weeks 50° C./75% r.h., 1% in mixture 1
# [26] = 1-2 weeks 50° C./75% r.h., 1% in mixture 2
# [27] = Solid stage, 1 week 80° C., tight container, Bulk (HPLC)
# [28] = Xenon light (approx. 1200 kLuxh), Bulk (HPLC)
structure (smiles),measurement,setting,value
"Cn1c(Nc2ccc(C(F)(F)F)cc2)nc2cc(Oc3ccnc(-c4ncc(C(F)(F)F)[nH]4)c3)ccc21 [API, {1-methyl-5-[2-(5-trifluoromethyl-1H-imidazol-2-yl)-pyridin-4-yloxy]-1H-benzoimidazol-2-yl}-(4-trifluoromethyl-phenyl)amine]",solubility,"[1]; 0.1N HCl, 25 °C, simulated gastric fluid, read-out: Solubility (approx. at 25° C.) (HPLC)",200 µg/mL
same,solubility,"[1]; acetonitrile, 25 °C, organic solvent or mixture, read-out: Solubility (approx. at 25° C.)",5200 µg/mL
same,solubility,"[1]; aqueous medium at pH 3, 25 °C, pH 3, aqueous buffer, read-out: Solubility (approx. at 25° C.) (HPLC)",0.06 µg/mL
same,solubility,"[1]; aqueous medium at pH 4.5, 25 °C, pH 4.5, aqueous buffer, read-out: Solubility (approx. at 25° C.) (HPLC)",0.09 µg/mL
same,Solid,[1]; line after Water under Solubility,No change
same,solubility,"[1]; methanol, 25 °C, organic solvent or mixture, read-out: Solubility (approx. at 25° C.)",11400 µg/mL
same,Aqueous solubility (in words),[1]; summary of Table 8,nearly insoluble in water
same,solubility,"[1]; water, 25 °C, water, read-out: Solubility (approx. at 25° C.) (HPLC)",24 µg/mL
same,AUC(0-inf),[2]; [13],5310 ± 4510 ng·h/mL
same,Cmax,[2]; [13],62.9 ± 74.4 ng/mL
same,Tmax,"[2]; beagle, dog, plasma, fasting, median",16 h
same,Tlag,"[2]; fasting, median",1.0 h
same,Absolute F,[2]; relative to an iv dose of 1.25 mg/kg,2.32 ± 1.97
same,pH of 1% solution or suspension,[3],5.5
same,Loss on drying by TG,[4]; As is,3.3%
same,Thermogravimetry (weight loss in %),[4]; Heating rate 20 K/min,3.3%
same,Aqueous solubility (in words),[5]; Water,practically insoluble in water
same,solubility at 5 days,"[5]; aqueous buffer, pH 2.19",125 µg/mL
same,solubility at 5 days,"[5]; aqueous buffer, pH 3.75",1.9 µg/mL
same,solubility at 5 days,"[5]; aqueous buffer, pH 5.78",0.4 µg/mL
same,solubility at 5 days,"[5]; aqueous buffer, pH 10.13",0.3 µg/mL
same,solubility at 5 days,"[5]; aqueous buffer, pH 11.00",0.3 µg/mL
same,solubility at 5 days,"[5]; simulated gastric fluid, pH 1.36",709 µg/mL
same,Hygroscopicity from moisture sorption profiles (in words),[6],non-hygroscopic
same,Hygroscopicity: After 1 day at 80% r.h.,"[6]; 80% r.h., 1 day, 25° C.",0
same,Hygroscopicity: After 1 day at 95% r.h.,"[6]; 95% r.h., 1 day, 25° C.",0.1
same,solubility,[7]; [14],9 µg/mL
same,solubility at 48 h,[7]; [14],4 µg/mL
same,pH,[7]; pH of the saturated aqueous solutions,5.235
same,Crystal modification after 24 hours equilibration (DSC/XRPD/TG),[8]; 2-propanol,No change
same,Crystal modification after 24 hours equilibration (DSC/XRPD/TG),[8]; Acetone,No change
same,Crystal modification after 24 hours equilibration (DSC/XRPD/TG),[8]; Acetonitrile,Change
same,Crystal modification after 24 hours equilibration (DSC/XRPD/TG),[8]; Ethanol,No change
same,Crystal modification after 24 hours equilibration (DSC/XRPD/TG),[8]; Ethyl acetate,No change
same,Crystal modification after 24 hours equilibration (DSC/XRPD/TG),[8]; Methanol,No change
same,Crystal modification after 24 hours equilibration (DSC/XRPD/TG),[8]; PEG400,No change
same,Crystal modification after 24 hours equilibration (DSC/XRPD/TG),[8]; Water,Change
same,Intrinsic dissolution rate,[9]; HCl 0.1N,0 mg min^−1 cm^−2
same,Intrinsic dissolution rate,[9]; Water,0 mg min^−1 cm^−2
same,CL,[10]; [15],A
same,DP,[10]; [15],0.6%
same,CL,[10]; [16],A↓
same,DP,[10]; [16],0.6%
same,CL,[10]; [17],A
same,DP,[10]; [17],1.4%
same,CL,[10]; [18],A↓
same,DP,[10]; [18],0.9%
same,CL,[10]; [19],A↓
same,DP,[10]; [19],0.6%
same,CL,[10]; [20],A↓
same,DP,[10]; [20],0.9%
same,CL,[10]; [21],A↓
same,DP,[10]; [21],27.0%
same,CL,[10]; [22],A↓
same,DP,[10]; [22],>99%
same,CL,[10]; [23],A
same,DP,[10]; [23],0.7%
same,CL,[10]; [24],A
same,DP,[10]; [24],0.6%
same,CL,[10]; [25],A
same,DP,[10]; [25],0.8%
same,CL,[10]; [26],A
same,DP,[10]; [26],0.5%
same,Stability in methanol (in words),[10]; In methanol,stable
same,CL,[10]; [27],A
same,DP,[10]; [27],0.6%
same,DP,"[10]; Solid state, 1 week 80° C./175% r.h, Bulk (HPLC)",0.6%
same,CL,"[10]; Solid state, 1 week 80° C./, Bulk (HPLC)",A
same,DP,[10]; Unstressed,0.6%
same,CL,[10]; [28],A
same,DP,[10]; [28],0.6%
same,optimum pH for aqueous stability,[10]; aqueous,5
same,Aqueous stability at higher pH (in words),[10]; higher pH (9 and 11),decomposes
same,pKa,[11],~4.7
same,Effect of grinding,[12],No change
